From patent publication US11467158B2, “BRCA1 mutations as predictive markers for topoisomerase inhibitions” (BOSTON MEDICAL CENTER CORPORATION, priority 2012, dated 2022)
Entries after “also recorded” stand apart in the source; their conditions may differ. Non-standard residues stand in square brackets, D forms with d. No end group written: not given here. pS = N[C@@H](COP(=O)(O)O)C(=O)O

Key:
[1] = test system: biosynthesis of nucleic acids; settings: cited from earlier work
[2] = test system: topo I; assay: topo I degradation in cells (immunoblot with anti-topo I); type: cell-based
Procedure: (§1) Phosphorylated GST-topo I was incubated with purified E1, UbcH5c (E2), and BRCA1/BARD1 (E3) (lane2). Phosphorylated topo I was also incubated with E1 and UbcH5c (E2) only as control (lane 1). Reactions were carried out in ubiquitination buffer at 37° C. for 30 min. The reaction products were analyzed by immunoblot analysis with anti-ubiquitin. […] Immunoprecipitates were analyzed by immunoblot analysis with anti-ubiquitin. […] Control and treated cells were harvested and lysed. Cell lysates were analyzed by immunoblot analysis with anti-topo I (upper panel) and anti-β-actin (lower panel).
(§2) Cells were harvested after designated time and lysed. The cell lysates were analyzed by immunoblot analysis with anti-topo I (upper panel) and anti-β-actin for equal protein loading (lower panel). An infrared secondary antibody was used and a LICOR system was used to visualize the florescence. […] Immunoprecipitates were analyzed by immunoblot analysis with anti-Pan ubiquitin. […] The cell number was counted after 12 hours using a Celigo system. The cells were treated with 10 and 25 nM SN-38 for 72 hours. The cells were counted again using the Celigo system and growth inhibition was determined using a formula described in the materials and methods section.
(§3) Control and treated cells were harvested and lysed. Cell lysates were analyzed by immunoblot analysis with anti-topo I (upper panel) and anti-β-actin (lower panel). […] Immunoprecipitates were analyzed by immunoblot analysis with anti-ubiquitin.
(§4) To further validate the findings in cells the inventors used BRCA1 E3 ligase deficient HCC1937 cells. The cells are sensitive to DNA-damaging agents and have impaired BRCA1 E3 ligase function. The inventors have used HCC1937 cells and stably expressed BRCA1 (HCC1937-BRCA1) to restore E3 ligase function. Both, HCC1937 and HCC1937-BRCA1 cells were treated with CPT for 60 minutes and drug free for 30 minutes in the presence of MG132. Control and CPT treated cells were lysed and subjected to immunoprecipitation with anti-topoI. The immunoprecipitates were analyzed by immunoblot analysis with anti-ubiquitin. […] Topo I is degraded in the response to CPT by ubiquitin proteosomal pathways, and the rate of degradation at least in part determines anti neoplastic activity of the drug. To determine the correlation between topo I degradation and CPT efficacy in HCC1937 and HCC1937-BRCA cells, were treated with […] and topo I degradation (FIG. 2C) and cell growth inhibition assays were performed (FIG. 2D).
(§5) To understand the topo I ubiquitination and CPT response, based on the inventors previous early screen, the inventors selected four triple negative breast cancer cell lines with differential rate of UPP mediated topo I degradation. […] To determine the level of CPT induced ubiquitination, control and treated cells were lysed and cell lysates were subjected to immunoprecipitation with anti-topoI. The immunoprecipitates were analyzed by immunoblot analysis with anti-ubiquitin. […] To understand the possible correlation between ubiquitination dependent topo I degradation and CPT response, cells were treated with different concentration of SN-38 and analyzed for percent growth inhibition. […] The highest percent of growth inhibition was detected in BT20 (FIG. 3C). Taken together, rate of topo I degradation by UPP determines the drug sensitivity in triple negative breast cancer cells.

[3] = test system: leukemia L-1210; settings: experimentally transplanted leukemia L-1210 in mice; cited from earlier work
[4] = test system: Walker 256 tumor; settings: experimentally transplanted Walker 256 tumor in rats; cited from earlier work
[5] = test system: HCC1937 cells; assay: percent cell growth inhibition after 72 hours (Celigo); type: cell-based
Procedure: as §1, §3, §4

[6] = test system: HCC1937-BRCA1 cells; assay: as above; type: cell-based
Procedure: as §1, §3, §4

[7] = test system: topo I; assay: topo I ubiquitination in cells (anti-topoI immunoprecipitation, anti-ubiquitin immunoblot); type: cell-based
Procedure: as §1, §2, §3, §4, §5

[8] = test system: MDAMB231 cells; assay: TNBC cell growth inhibition, 72 hours (Celigo); type: cell-based
Procedure: as §2, with “The cells were treated with 10 and 25 nM SN-38 for 72 hours.” left out
as §5, with “Taken together, rate of topo I degradation by UPP determines the drug sensitivity in triple negative breast cancer cells.” left out

[9] = test system: SUM52 cells; assay: TNBC cell growth inhibition, 72 hours (Celigo); type: cell-based; settings: 10 and 25 nM
Procedure: as §2, §5

[10] = test system: BT549 cells; assay: TNBC cell growth inhibition, 72 hours (Celigo); type: cell-based
Procedure: as §2, §5

[11] = test system: BT20 cells; assay: TNBC cell growth inhibition, 72 hours (Celigo); type: cell-based
Procedure: as §2, §5

[12] = test system: HIV-1; settings: acute and chronic infections, in vitro; cited from earlier work
[13] = molecular target: T1, BRCA1-BRCT domain (Homo sapiens, UniProt P38398); assay: fluorescence polarization of Topo I phosphopeptide with GST-BRCT; type: binding; settings: peptide labeled with Alexa Fluor 532, final dilution 1:1000 or 1:500, varying GST-BRCT concentrations
T1 construct: made in house; host or cells: E. coli Rosetta (DE3) pLysS (Novagen)
Procedure: Phosphopeptide labeled with Alexa Fluor 532 was incubated at a final dilution of either 1:1000 or 1:500 with varying concentrations of GST-BRCT or buffer alone. Polarization of the light emitted by the labeled peptide was detected on a Tecan Infinite M1000 pro and is plotted as a function of protein concentration.
An exemplary assay to identify a mutation in the BRCT domain which decreases the binding affinity of the BRCT domain for the phospho-ser10-topo I polypeptide was performed as follows (see FIG. 8): Topo I phosphopeptide NDpSQIEADFRLNDC (SEQ ID NO: 4) was conjugated to Alexa Fluor 532 (Invitrogen) via maleimide reaction with the C-terminal cysteine, as per manufacturer's protocol. Labeled peptide was separated from the reaction mixture by RP-HPLC using C-18 media and eluted with 30% acetonitrile. The partially purified peptide was lyophilized and resuspended in TBS with 1 mM DTT. GST-BRCT was expressed in Rosetta (DE3) pLysS (Novagen) and purified by standard methods. The purified protein was eluted from the GS beads and dialyzed against TBS containing 1 mM DTT and 5% glycerol prior to storage at −80°. […] 20 μl from each dilution was then transferred to each of 4 wells in a 384-well black plate, and FP was read on a Tecan Infinite M1000 pro and plotted as mP as a function of protein concentration.

T1 sequence (P38398 1650-1863): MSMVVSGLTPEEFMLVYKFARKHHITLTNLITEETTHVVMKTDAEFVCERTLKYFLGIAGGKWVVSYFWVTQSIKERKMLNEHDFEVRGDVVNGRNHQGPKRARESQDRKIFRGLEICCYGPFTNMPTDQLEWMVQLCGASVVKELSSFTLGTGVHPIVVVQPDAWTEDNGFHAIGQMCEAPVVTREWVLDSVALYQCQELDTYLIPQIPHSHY

For CC[C@@]1(O)C(=O)OCc2c1cc1n(c2=O)Cc2cc3ccccc3nc2-1 [CPT, camptothecin], the “inhibitory activity toward the biosynthesis of nucleic acids” value [1] is listed as “strong inhibitory activity”, the “topo I degradation” value ([2]; BT20 cells, in 2 hours) is listed as “not appreciably degraded” and the “topo I degradation” value ([2]; BT549 cells, in 2 hours) is listed as “not appreciably degraded”. For the same compound, the “topo I degradation” value ([2]; HCC1937-BRCA1 cells) was “degrades topo I”, the “topo I degradation” value ([2]; HCC1937 cells) was “fails to ubiquitinate and degrade topo I” and the “time in which topo I was degraded” value ([2]; MDAMB231 cells) was no more than 2 h. For the same compound, the “time in which topo I was degraded” value ([2]; SUM52 cells) was no more than 2 h, the anti-tumor activity [3] was “potent anti-tumor activity” and the anti-tumor activity [4] was “potent anti-tumor activity”. For the same compound, the “cell growth inhibition (sensitivity to the drug)” value (“cell growth inhibition” below) [5] was “highly sensitive”, the “cell growth inhibition” value [6] was “resistant” and the “topo I ubiquitination” value ([7]; BT20 cells) was “no ubiquitination”. The “topo I ubiquitination” value ([7]; BT549 cells) was “no ubiquitination”, the “topo I ubiquitination” value ([7]; HCC1937 cells (BRCA1 E3 ligase deficient), treated 60 minutes, drug free 30 minutes, MG132) was “No ubiquitination; also recorded: fail to ubiquitinate topo I; also recorded: fails to ubiquitinate and degrade topo I” and the “topo I ubiquitination” value ([7]; MDAMB231 cells) was “ubiquitinated”. The “topo I ubiquitination” value ([7]; SUM52 cells) was “ubiquitinated”.

For CCc1c2c(nc3ccc(O)cc13)-c1cc3c(c(=O)n1C2)COC(=O)[C@]3(O)CC [SN-38], the “topo I degradation” value ([2]; HCC1937-BRCA1 cells) was “degrade topo I”, the “topo I degradation” value ([2]; HCC1937 cells) was “do not degrade topo I” and the “cell growth under drug” value ([8]; 50 nM) was “cells were growing”. For the same compound, the “sensitivity to the drug (growth inhibition)” value ([8]; 72 hours) was “remained resistant”, the “percent growth inhibition (compared among four TNBC cell lines)” value [9] was “least” and the “sensitivity to the drug (growth inhibition)” value [10] was “very sensitive”. For the same compound, the “percent growth inhibition (compared among four TNBC cell lines)” value ([11]; BT20 cells) was “highest”, the “sensitivity to the drug (growth inhibition)” value ([11]; BT20 cells (printed BT2020)) was “very sensitive” and the “cell growth inhibition” value [5] was “sensitive”. The “cell growth inhibition” value [6] was “sensitive” and the “topo I ubiquitination” value ([7]; HCC1937-BRCA1 cells (wild type BRCA1 restored), treated 60 minutes, drug free 30 minutes, MG132) was “pronounced topo I ubiquitination”.

In the case of CC[C@@]1(O)C(=O)OCc2c1cc1n(c2=O)Cc2cc3c(CN(C)C)c(O)ccc3nc2-1 [Topotecan], the “inhibition of HIV-1 infection” value [12] is given as “inhibit both acute and chronic HIV-1 infections”.

For “NDpSQIEADFRLNDC (SEQ ID NO: 4) (ND[pS]QIEADFRLNDC; listed as Homo sapiens) [Topo I phosphopeptide, topo I phosphopeptide with phosphorylated S10]”, the “binding to GST-BRCT (fluorescence polarization)” value [13] was “direct interaction” and the “binding to GST-BRCT (fluorescence polarization)” value ([13]; listed as topo I phosphopeptide) was “binds directly”.
